Data reported in US20220396569A1 (Carmot Therapeutics, Inc., priority 2021, published 2022).

target: T1, human GLP-1 receptor (Homo sapiens, UniProt P43220); assay: GLP-1R cAMP Assay (HitHunter cAMP accumulation); type: cell-based; conditions: cAMP accumulation, CHO cells stably overexpressing human GLP-1 receptor, 30 min treatment; read-out: EC50
T1 construct: expressed in transfected cells
Outline: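 CHO cells stably expressing human GLP-1R, 10,000 cells/well in HBSS with 10 mM HEPES and 625 μM IBMX, were mixed with anti-cAMP antibody reagent. Compound was applied as a 20-point dose response in triplicate for 30 min. After lysis and overnight detection, luminescence was read and dose-response curves analysed.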

T1 sequence (P43220 24-463): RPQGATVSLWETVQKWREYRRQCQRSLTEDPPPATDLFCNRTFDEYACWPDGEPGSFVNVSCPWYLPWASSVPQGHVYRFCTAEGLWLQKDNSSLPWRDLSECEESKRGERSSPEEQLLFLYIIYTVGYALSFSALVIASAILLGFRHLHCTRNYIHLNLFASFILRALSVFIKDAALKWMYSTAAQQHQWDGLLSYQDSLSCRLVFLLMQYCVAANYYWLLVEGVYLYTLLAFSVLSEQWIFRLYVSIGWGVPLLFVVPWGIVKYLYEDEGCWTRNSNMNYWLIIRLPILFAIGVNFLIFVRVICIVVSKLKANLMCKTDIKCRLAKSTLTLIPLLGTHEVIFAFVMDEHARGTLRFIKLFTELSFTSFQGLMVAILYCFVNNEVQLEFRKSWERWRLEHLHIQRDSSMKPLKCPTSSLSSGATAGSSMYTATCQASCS

SMILES	EC50 [nM]
O=C(O)c1cc(F)c2nc(CN3CC=C(c4ccc(F)c(COc5ccc(Cl)cc5F)n4)C3)n(C[C@@H]3CCO3)c2c1 [Compound 413, 2-[(3-{6-[(4-chloro-2-fluorophenoxy)methyl]-5-fluoropyridin-2-yl}-2,5-dihydro-1H-pyrrol-1-yl)methyl]-4-fluoro-1-{[(2S)-oxetan-2-yl]methyl}-1H-1,3-benzodiazole-6-carboxylic acid]	< 50
N#Cc1ccc(OCc2cccc([C@@H]3CCN(Cc4nc5ccc(C(=O)O)cc5n4C[C@@H]4CCO4)C3)c2)c(F)c1 [Compound 414, 2-{[(3S)-3-{3-[(4-cyano-2-fluorophenoxy)methyl]phenyl}pyrrolidin-1-yl]methyl}-1-{[(2S)-oxetan-2-yl]methyl}-1H-1,3-benzodiazole-6-carboxylic acid]	< 50
N#Cc1ccc(OCc2cccc([C@H]3CCN(Cc4nc5ccc(C(=O)O)cc5n4C[C@@H]4CCO4)C3)c2)c(F)c1 [Compound 415, 2-{[(3R)-3-{3-[(4-cyano-2-fluorophenoxy)methyl]phenyl}pyrrolidin-1-yl]methyl}-1-{[(2S)-oxetan-2-yl]methyl}-1H-1,3-benzodiazole-6-carboxylic acid]	50 to 500
N#Cc1ccc(OCc2nc(C3=CCN(Cc4nc5c(F)cc(C(=O)O)cc5n4CC4(CF)CC4)C3)ccc2F)c(F)c1 [Compound 416, 2-[(3-{6-[(4-cyano-2-fluorophenoxy)methyl]-5-fluoropyridin-2-yl}-2,5-dihydro-1H-pyrrol-1-yl)methyl]-4-fluoro-1-{[1-(fluoromethyl)cyclopropyl]methyl)-1H-1,3-benzodiazole-6-carboxylic acid]	< 50
O=C(O)c1ccc2nc(CN3CC=C(c4cc(COc5ccc(Cl)cc5F)ccc4F)C3)n(C[C@@H]3CCO3)c2c1 [Compound 417, 2-[(3-{5-[(4-chloro-2-fluorophenoxy)methyl]-2-fluorophenyl}-2,5-dihydro-1H-pyrrol-1-yl)methyl]-1-{[(2S)-oxetan-2-yl]methyl}-1H-1,3-benzodiazole-6-carboxylic acid]	< 50
O=C(O)c1ccc2nc(CN3CC=C(c4cc(F)cc(COc5ccc(Cl)cc5F)c4)C3)n(C[C@@H]3CCO3)c2c1 [Compound 418, 2-[(3-{3-[(4-chloro-2-fluorophenoxy)methyl]-5-fluorophenyl}-2,5-dihydro-1H-pyrrol-1-yl)methyl]-1-{[(2S)-oxetan-2-yl]methyl}-1H-1,3-benzodiazole-6-carboxylic acid]	< 50
O=C(O)c1ccc2nc(CN3CCC(c4cc(COc5ccc(Cl)cc5F)ccc4F)C3)n(C[C@@H]3CCO3)c2c1 (stereo partly drawn) [Compound 419, 2-[(3-{5-[(4-chloro-2-fluorophenoxy)methyl]-2-fluorophenyl}pyrrolidin-1-yl)methyl]-1-{[(2S)-oxetan-2-yl]methyl}-1H-1,3-benzodiazole-6-carboxylic acid]	< 50
O=C(O)c1ccc2nc(CN3CCC(c4cc(F)cc(COc5ccc(Cl)cc5F)c4)C3)n(C[C@@H]3CCO3)c2c1 (stereo partly drawn) [Compound 420, 2-[(3-{3-[(4-chloro-2-fluorophenoxy)methyl]-5-fluorophenyl}pyrrolidin-1-yl)methyl]-1-{[(2S)-oxetan-2-yl]methyl}-1H-1,3-benzodiazole-6-carboxylic acid]	< 50
N#Cc1ccc(OCc2nc(C3=CCN(Cc4nc5c(F)cc(C(=O)O)cc5n4C[C@@H]4CCO4)C3)ccc2F)c(F)c1 [Compound 421, 2-[(3-{6-[(4-cyano-2-fluorophenoxy)methyl]-5-fluoropyridin-2-yl}-2,5-dihydro-1H-pyrrol-1-yl)methyl]-4-fluoro-1-{[(2S)-oxetan-2-yl]methyl}-1H-1,3-benzodiazole-6-carboxylic acid]	< 50
N#CCC1(Cn2c(CN3CC=C(c4ccc(F)c(COc5ccc(C#N)cc5F)n4)C3)nc3ccc(C(=O)O)cc32)CC1 [Compound 422, 2-[(3-{6-[(4-cyano-2-fluorophenoxy)methyl]-5-fluoropyridin-2-yl}-2,5-dihydro-1H-pyrrol-1-yl)methyl]-1-{[l-(cyanomethyl)cyclopropyl]methyl}-1H-1,3-benzodiazole-6-carboxylic acid]	< 50
N#Cc1ccc(OCc2nc(C3=CCN(Cc4nc5ccc(C(=O)O)cc5n4CC4(CC(N)=O)CC4)C3)ccc2F)c(F)c1 [Compound 423, 1-{[1-(carbamoylmethyl)cyclopropyl]methyl}-2-[(3-{6-[(4-cyano-2-fluorophenoxy)methyl]-5-fluoropyridin-2-yl}-2,5-dihydro-1H-pyrrol-1-yl)methyl]-1H-1,3-benzodiazole-6-carboxylic acid]	50 to 500
N#CCC1(Cn2c(CN3CC=C(c4ccc(F)c(COc5ccc(C#N)cc5F)n4)C3)nc3c(F)cc(C(=O)O)cc32)CC1 [Compound 424, 2-[(3-{6-[(4-cyano-2-fluorophenoxy)methyl]-5-fluoropyridin-2-yl}-2,5-dihydro-1H-pyrrol-1-yl)methyl]-1-{[1-(cyanomethyl)cyclopropyl]methyl}-4-fluoro-1H-1,3-benzodiazole-6-carboxylic acid]	< 50
N#Cc1ccc(OCc2nc(C3=CCN(Cc4nc5c(F)cc(C(=O)O)cc5n4CC4(CC(N)=O)CC4)C3)ccc2F)c(F)c1 [Compound 425, 1-{[1-(carbamoylmethyl)cyclopropyl]methyl}-2-[(3-{6-[(4-cyano-2-fluorophenoxy)methyl]-5-fluoropyridin-2-yl}-2,5-dihydro-1H-pyrrol-1-yl)methyl]-4-fluoro-1H-1,3-benzodiazole-6-carboxylic acid]	50 to 500
O=C(O)c1ccc2nc(CN3CC=C(c4cccc(COc5ccc(Cl)cc5F)c4F)C3)n(C[C@@H]3CCO3)c2c1 [Compound 426, 2-[(3-{3-[(4-chloro-2-fluorophenoxy)methyl]-2-fluorophenyl}-2,5-dihydro-1H-pyrrol-1-yl)methyl]-1-{[(2S)-oxetan-2-yl]methyl}-1H-1,3-benzodiazole-6-carboxylic acid]	50 to 500
O=C(O)c1cc(F)c2nc(CN3CC[C@@H](c4ccnc(COc5ccc(Cl)cc5F)c4)C3)n(C[C@@H]3CCO3)c2c1 [Compound 428, 2-{[(3S)-3-{2-[(4-chloro-2-fluorophenoxy)methyl]pyridin-4-yl}pyrrolidin-1-yl]methyl}-4-fluoro-1-{[(2S)-oxetan-2-yl]methyl}-1H-1,3-benzodiazole-6-carboxylic acid]	< 50
N#CCC1(Cn2c(CN3CC=C(c4ccc(F)c(COc5ccc(Cl)cc5F)n4)C3)nc3ccc(C(=O)O)cc32)CC1 [Compound 429, 2-[(3-{6-[(4-chloro-2-fluorophenoxy)methyl]-5-fluoropyridin-2-yl}-2,5-dihydro-1H-pyrrol-1-yl)methyl]-1-{[1-(cyanomethyl)cyclopropyl]methyl}-1H-1,3-benzodiazole-6-carboxylic acid]	< 50
N#CCC1(Cn2c(CN3CC=C(c4ccc(F)c(COc5ccc(Cl)cc5F)n4)C3)nc3c(F)cc(C(=O)O)cc32)CC1 [Compound 430, 2-[(3-{6-[(4-chloro-2-fluorophenoxy)methyl]-5-fluoropyridin-2-yl}-2,5-dihydro-1H-pyrrol-1-yl)methyl]-1-{[1-(cyanomethyl)cyclopropyl]methyl}-4-fluoro-1H-1,3-benzodiazole-6-carboxylic acid]	< 50
N#CCC1(Cn2c(CN3CC[C@@H](c4ccnc(COc5ccc(Cl)cc5F)c4)C3)nc3ccc(C(=O)O)cc32)CC1 [Compound 431, 2-{[(3S)-3-{2-[(4-chloro-2-fluorophenoxy)methyl]pyridin-4-yl}pyrrolidin-1-yl]methyl}-1-{[1-(cyanomethyl)cyclopropyl]methyl}-1H-1,3-benzodiazole-6-carboxylic acid]	< 50
N#CCC1(Cn2c(CN3CC[C@@H](c4ccnc(COc5ccc(Cl)cc5F)c4)C3)nc3c(F)cc(C(=O)O)cc32)CC1 [Compound 432, 2-{[(3S)-3-{2-[(4-chloro-2-fluorophenoxy)methyl]pyridin-4-yl}pyrrolidin-1-yl]methyl}-1-{[1-(cyanomethyl)cyclopropyl]methyl}-4-fluoro-1H-1,3-benzodiazole-6-carboxylic acid]	< 50
N#CCC1(Cn2c(CN3CC[C@H](c4ccnc(COc5ccc(Cl)cc5F)c4)C3)nc3ccc(C(=O)O)cc32)CC1 [Compound 433, 2-{[(3R)-3-{2-[(4-chloro-2-fluorophenoxy)methyl]pyridin-4-yl}pyrrolidin-1-yl]methyl}-1-{[1-(cyanomethyl)cyclopropyl]methyl}-1H-1,3-benzodiazole-6-carboxylic acid]	50 to 500
N#CCC1(Cn2c(CN3CC[C@H](c4ccnc(COc5ccc(Cl)cc5F)c4)C3)nc3c(F)cc(C(=O)O)cc32)CC1 [Compound 434, 2-{[(3R)-3-{2-[(4-chloro-2-fluorophenoxy)methyl]pyridin-4-yl}pyrrolidin-1-yl]methyl}-1-{[1-(cyanomethyl)cyclopropyl]methyl}-4-fluoro-1H-1,3-benzodiazole-6-carboxylic acid]	50 to 500
O=C(O)c1ccc2nc(CN3CC=C(c4nc(COc5ccc(Cl)cc5F)ccc4F)C3)n(C[C@@H]3CCO3)c2c1 [Compound 436]	< 50
O=C(O)c1cc(F)c2nc(CN3CC=C(c4nc(COc5ccc(Cl)cc5F)ccc4F)C3)n(C[C@@H]3CCO3)c2c1 [Compound 437, 2-[(3-{6-[(4-chloro-2-fluorophenoxy)methyl]-3-fluoropyridin-2-yl}-2,5-dihydro-1H-pyrrol-1-yl)methyl]-4-fluoro-1-{[(2S)-oxetan-2-yl]methyl}-1H-1,3-benzodiazole-6-carboxylic acid]	< 50
N#CCC1(Cn2c(CN3CC=C(c4nc(COc5ccc(Cl)cc5F)ccc4F)C3)nc3ccc(C(=O)O)cc32)CC1 [Compound 438, 2-[(3-{6-[(4-chloro-2-fluorophenoxy)methyl]-3-fluoropyridin-2-yl}-2,5-dihydro-1H-pyrrol-1-yl)methyl]-1-{[1-(cyanomethyl)cyclopropyl]methyl}-1H-1,3-benzodiazole-6-carboxylic acid]	< 50
